Measurements from patent US5436251A, “Treatment of anxiety and gastrointestinal disorders with azabicyclo carbonyl-2-(cyclopropylmethyloxy)benzamide” (John Wyeth & Brother, Limited, priority 1992, dated 1995).

Assays:
5-HT3 receptors = target: T1, 5-HT3 receptors (Rattus norvegicus, UniProt P35563); assay: 5-HT3 antagonistic activity in the rat vagus (antagonism of 5-HT depolarization of isolated vagus nerve, Schild analysis); design: species or system rat (Sprague-Dawley); conditions: for Kb: antagonism of 5-HT depolarization, rat vagus nerve in vitro, Schild analysis, read-out: pA2 (converted)
T1 construct: from tissue; host or cells: isolated vagus nerve segments, Sprague-Dawley rat
T1 sequence (P35563 24-483): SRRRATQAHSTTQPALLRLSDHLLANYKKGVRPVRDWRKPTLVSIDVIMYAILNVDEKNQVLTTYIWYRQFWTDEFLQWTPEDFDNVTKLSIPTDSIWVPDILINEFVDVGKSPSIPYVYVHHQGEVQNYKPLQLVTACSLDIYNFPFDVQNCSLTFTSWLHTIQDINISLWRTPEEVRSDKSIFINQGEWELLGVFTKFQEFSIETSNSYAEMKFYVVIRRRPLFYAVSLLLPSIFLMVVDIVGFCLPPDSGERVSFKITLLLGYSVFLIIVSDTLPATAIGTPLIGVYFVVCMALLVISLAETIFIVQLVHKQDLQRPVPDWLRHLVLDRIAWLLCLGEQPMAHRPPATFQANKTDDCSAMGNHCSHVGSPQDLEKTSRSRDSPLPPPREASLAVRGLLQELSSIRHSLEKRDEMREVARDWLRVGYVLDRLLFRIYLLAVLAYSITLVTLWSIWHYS
Procedure: Compound A, the compound of GB 2236528A and the compounds disclosed in GB 2213816A are tested for 5-HT3 antagonistic activity in the rat vagus by the following procedure:
The method is similar to that described by Ireland and Tyers, Br. J. Pharmac., 1987, 90, 229-238 and is dependent upon the ability of 5-HT to depolarize the vagus nerve in vitro.
Segments of the vagus nerve from Sprague-Dawley rats were placed in a perspex chamber and perfused with Krebs solution. Electrodes, positioned at either end of the nerve segment, were used to record the potential differences which ensued upon the addition of various concentrations of 5-HT to one end of the nerve segment.
Concentration-response curves to 5-HT were obtained in this manner prior to and following equilibration of the nerve segment with Krebs solution containing the test-substance.

[1] = Potential anxiolytic activity: mouse exploratory activity in a two-compartment light/dark box; assay type: in vivo; conditions: for minimal effective dose: Mus musculus, sc, read-out: minimum effective dose (MED)
Procedure: Compound A, the compound of GB 2236528A and a representative number of compounds disclosed in GB 2213816A which had high pA2 values in the 5-HT3 -antagonist test procedure given above were tested for potential anxiolytic activity by a test procedure measuring mouse exploratory activity in a two-compartment light/dark box based upon the procedure of B Costall et al, Neuropharmacology, 1987, 26, 195-200 and J. N. Crawley et al, Pharmac. Biochemo Behav., 1980, 13, 167-170. The test involves observing groups of mice placed in an open topped box, one third of which is painted black and illuminated under a dim red light and partitioned from the remainder of the box which is painted white and brightly illuminated. Access between the two sections is via an opening in the centre of the partition. The groups of mice are treated with vehicle or test compound and various behavioural parameters of the animals are measured including the number of exploratory rearings made by the mice in each section and the number of times the mice cross lines marked on the floor of each section. For each treatment group the mean numbers of line crossings and rears in each section of the box are calculated. Differences between drug-treated groups and vehicle-treated controls are compared using Student's unpaired t-test. […] Test compounds are considered to be active if they induce a similar set of changes and, in particular, if they produce a significant (p<0.05) increase in rearing activity in the light section of the box.

[2] = significant (p<0.05) increase in rearing activity in the light section

**Q.** For `O=C(NC(=O)c1ccccc1OCC1CC1)N[C@H]1C[C@H]2CC[C@@H](C1)N2` [Compound A, (endo)-N-[[[8-azabicyclo[3.2.1]-octan-3-yl]amino]carbonyl]-2-(cyclopropylmethyloxy)benzamide], which Kb (5-HT3 receptors) is on record?
**A.** The Kb was 0.398 nM.

**Q.** What about the “potency as 5-HT3 antagonist compared with GB 2236528A and GB 2213816A compounds” value (5-HT3 receptors; rat vagus, comparison in words) of the same compound?
**A.** Its value is “surprisingly more potent as 5-HT3 -antagonists”.

**Q.** And the minimal effective dose [1, 2]?
**A.** Its minimal effective dose is 0.001 mg/kg.

**Q.** And the “potency as potential anxiolytic compared with GB 2236528A and GB 2213816A compounds” value ([1]; mouse light/dark box, s.c., comparison in words)?
**A.** Its value is “surprisingly more potent”.

**Q.** Which “minimum effective dose (MED)” value ([1]; s.c., significant (p<0.05) increase in rearing activity in the light section) does the source give for `O=C(NC(=O)c1ccccc1OCC1CC1)NC1CC2CCC(C1)N2` (stereo not shown) [Example 1] here?
**A.** Its value is 0.1 mg/kg.

**Q.** With `CN1[C@@H]2CC[C@H]1C[C@@H](NC(=O)NC(=O)c1ccccc1OCC1CC1)C2` [Compound of GB 2236528A, (endo)-N-[[(8-methyl-8-azabicyclo[3.2.1]octan-3-yl)amino]carbonyl]-2-(cyclopropylmethoxy]benzamide] as the compound, how does the Kb (5-HT3 receptors) read?
**A.** Its Kb is 1.26 nM.

**Q.** What about the minimal effective dose [1, 2] of the same compound?
**A.** Its minimal effective dose is 0.01 mg/kg.
